Our source for the IC50 values is patent publication US20210238192A1, “VASCULAR ADHESION PROTEIN-1 (VAP-1) MODULATORS AND THERAPEUTIC USES THEREOF” (Blade Therapeutics, Inc., priority 2018, published 2021).

Structures can show the parent of a compound that is named as a salt. A value given as a limit tells only on which side of the number the result lay.

The first assay deals with T1, Human MAO-A (Homo sapiens, UniProt P21397).
T1 sequence (P21397 1-527): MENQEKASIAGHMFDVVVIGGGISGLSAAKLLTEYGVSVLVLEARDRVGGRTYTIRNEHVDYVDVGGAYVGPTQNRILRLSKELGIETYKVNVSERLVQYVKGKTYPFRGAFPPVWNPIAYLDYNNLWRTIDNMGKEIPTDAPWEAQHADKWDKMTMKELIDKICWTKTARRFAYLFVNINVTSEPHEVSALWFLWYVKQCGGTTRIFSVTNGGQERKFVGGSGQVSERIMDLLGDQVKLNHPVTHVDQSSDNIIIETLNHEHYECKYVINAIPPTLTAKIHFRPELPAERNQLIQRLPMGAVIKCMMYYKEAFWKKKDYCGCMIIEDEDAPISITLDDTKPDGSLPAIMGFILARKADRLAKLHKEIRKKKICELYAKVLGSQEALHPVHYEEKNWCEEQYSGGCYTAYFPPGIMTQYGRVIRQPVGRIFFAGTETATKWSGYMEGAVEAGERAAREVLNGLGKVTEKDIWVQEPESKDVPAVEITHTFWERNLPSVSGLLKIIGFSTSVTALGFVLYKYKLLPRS
The experiment in a line: MAO-A inhibition (Amplex Red continuous fluorescence assay). The following applies: 30 min pre-incubation at room temp; substrate tyramine; read-out: Human MAO-A IC50. The assay is classed as biochemical. The gist of the method:
(§1)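 Continuous Amplex Red/HRP fluorescence read of H2O2 (ex/em 510/565 nm, 5 min). Substrates and buffers: VAP-1 benzylamine, […] sodium phosphate pH 7.4, 30 min 37° C preincubation; MAO-A tyramine and MAO-B benzylamine, same buffer, room temp; DAO histamine, 50 mM HEPES pH 7.5, room temp. IC50 from 4-parameter fit of rates.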
As to `NC/C(=C/F)COc1cccc2scnc12` [Compound 9, (Z)-2-((benzo[d]thiazol-4-yloxy)methyl)-3-fluoroprop-2-en-1-amine hydrochloride], the IC50 is 3 to 10 µM.

`NC/C(=C\F)COc1ccc(-c2ccn[nH]2)cc1` [Compound 42, (E)-2-((4-(1H-pyrazol-5-yl)phenoxy)methyl)-3-fluoroprop-2-en-1-amine hydrochloride]: the IC50 was less than 3 µM.

In the case of `NC/C(=C\F)COc1ccc(-c2cnc[nH]2)cc1` [Compound 40, (E)-2-((4-(1H-imidazol-5-yl)phenoxy)methyl)-3-fluoroprop-2-en-1-amine], the IC50 was in the range of 3 to 10 µM.

With `CCOC(=O)Nc1ccc(OC/C(=C/F)CN)cc1` [Compound 13], the IC50 was less than 3 µM.

`NC/C(=C/F)COc1ccc(-c2nccs2)cc1` [Compound 20, (Z)-3-Fluoro-2-((4-(Thiazol-2-Yl)Phenoxy)Methyl)Prop-2-En-1-Amine Hydrochloride]: the IC50 was less than 3 µM.

In the case of `NC/C(=C/F)COc1ccc(-c2ncccn2)cc1` [Compound 38, (Z)-3-fluoro-2-((4-(pyrimidin-2-yl)phenoxy)methyl)prop-2-en-1-amine hydrochloride], the IC50 was less than 3 µM.

In the case of `Cn1cnc(-c2ccc(OC/C(=C/F)CN)cc2)c1` [Compound 39, (E)-3-fluoro-2-((4-(1-methyl-1H-imidazol-4-yl)phenoxy)methyl)prop-2-en-1-amine], the IC50 is greater than 10 µM.

On to `NC/C(=C/F)COC(=O)Nc1ccccc1` [Compound 68, (Z)-2-(aminomethyl)-3-fluoroalkyl phenylcarbamate], for which the IC50 is less than 3 µM.

In the case of `NC/C(=C\F)Cn1ccc2ccccc21` [Compound 15, (E)-2-((1H-indol-1-yl)methyl)-3-fluoroprop-2-en-1-amine hydrochloride], the IC50 is less than 3 µM.

A further assay addresses T2, Human VAP-1 (Homo sapiens, UniProt Q16853).
T2 sequence (Q16853 1-763): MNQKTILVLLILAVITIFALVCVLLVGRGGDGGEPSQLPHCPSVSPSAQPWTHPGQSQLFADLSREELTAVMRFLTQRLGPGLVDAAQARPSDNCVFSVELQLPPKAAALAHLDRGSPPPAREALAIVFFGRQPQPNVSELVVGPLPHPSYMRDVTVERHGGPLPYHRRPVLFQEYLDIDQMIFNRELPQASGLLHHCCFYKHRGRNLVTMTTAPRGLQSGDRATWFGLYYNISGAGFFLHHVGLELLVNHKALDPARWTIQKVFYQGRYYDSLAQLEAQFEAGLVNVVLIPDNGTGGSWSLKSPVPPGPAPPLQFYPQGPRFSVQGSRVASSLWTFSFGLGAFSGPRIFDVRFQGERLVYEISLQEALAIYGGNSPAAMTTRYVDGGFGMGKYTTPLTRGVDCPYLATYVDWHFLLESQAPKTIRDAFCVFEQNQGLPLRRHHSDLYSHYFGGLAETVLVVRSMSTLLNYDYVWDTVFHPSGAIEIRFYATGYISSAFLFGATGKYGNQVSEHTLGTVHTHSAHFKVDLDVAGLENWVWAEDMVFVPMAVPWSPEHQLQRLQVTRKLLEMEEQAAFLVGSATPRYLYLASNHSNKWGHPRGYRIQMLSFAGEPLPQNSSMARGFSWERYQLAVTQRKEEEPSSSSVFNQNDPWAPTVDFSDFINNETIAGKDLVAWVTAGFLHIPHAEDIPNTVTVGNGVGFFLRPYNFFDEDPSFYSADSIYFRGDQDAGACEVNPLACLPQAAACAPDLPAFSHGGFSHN
The assay can be described thus: VAP-1 inhibition assay (Amplex Red continuous fluorescence assay). The assay is classed as biochemical. Particulars: 30 min pre-incubation at 37° C.; substrate benzylamine; read-out: Human VAP-1 IC50. A digest of the protocol: as §1
As to `NC/C(=C/F)COc1cccc2scnc12` [Compound 9, (Z)-2-((benzo[d]thiazol-4-yloxy)methyl)-3-fluoroprop-2-en-1-amine hydrochloride], the IC50 was less than 3 µM.

In the case of `NC/C(=C\F)COc1ccc(-c2ccn[nH]2)cc1` [Compound 42, (E)-2-((4-(1H-pyrazol-5-yl)phenoxy)methyl)-3-fluoroprop-2-en-1-amine hydrochloride], the IC50 was less than 3 µM.

Consider `NC/C(=C\F)COc1ccc(-c2cnc[nH]2)cc1` [Compound 40, (E)-2-((4-(1H-imidazol-5-yl)phenoxy)methyl)-3-fluoroprop-2-en-1-amine], for which the IC50 is less than 3 µM.

With `CCOC(=O)Nc1ccc(OC/C(=C/F)CN)cc1` [Compound 13], the IC50 is less than 3 µM.

Turning to `NC/C(=C/F)COc1ccc(-c2nccs2)cc1` [Compound 20, (Z)-3-Fluoro-2-((4-(Thiazol-2-Yl)Phenoxy)Methyl)Prop-2-En-1-Amine Hydrochloride], the IC50 was less than 3 µM.

As for `NC/C(=C/F)COc1ccc(-c2ncccn2)cc1` [Compound 38, (Z)-3-fluoro-2-((4-(pyrimidin-2-yl)phenoxy)methyl)prop-2-en-1-amine hydrochloride], the IC50 was less than 3 µM.

As to `Cn1cnc(-c2ccc(OC/C(=C/F)CN)cc2)c1` [Compound 39, (E)-3-fluoro-2-((4-(1-methyl-1H-imidazol-4-yl)phenoxy)methyl)prop-2-en-1-amine], the IC50 is less than 3 µM.

For `NC/C(=C/F)COC(=O)Nc1ccccc1` [Compound 68, (Z)-2-(aminomethyl)-3-fluoroalkyl phenylcarbamate], the IC50 was less than 3 µM.

`NC/C(=C\F)Cn1ccc2ccccc21` [Compound 15, (E)-2-((1H-indol-1-yl)methyl)-3-fluoroprop-2-en-1-amine hydrochloride]: the IC50 was less than 3 µM.

Another assay deals with T3, Human DAO (Homo sapiens, UniProt P19801).
T3 sequence (P19801 20-751): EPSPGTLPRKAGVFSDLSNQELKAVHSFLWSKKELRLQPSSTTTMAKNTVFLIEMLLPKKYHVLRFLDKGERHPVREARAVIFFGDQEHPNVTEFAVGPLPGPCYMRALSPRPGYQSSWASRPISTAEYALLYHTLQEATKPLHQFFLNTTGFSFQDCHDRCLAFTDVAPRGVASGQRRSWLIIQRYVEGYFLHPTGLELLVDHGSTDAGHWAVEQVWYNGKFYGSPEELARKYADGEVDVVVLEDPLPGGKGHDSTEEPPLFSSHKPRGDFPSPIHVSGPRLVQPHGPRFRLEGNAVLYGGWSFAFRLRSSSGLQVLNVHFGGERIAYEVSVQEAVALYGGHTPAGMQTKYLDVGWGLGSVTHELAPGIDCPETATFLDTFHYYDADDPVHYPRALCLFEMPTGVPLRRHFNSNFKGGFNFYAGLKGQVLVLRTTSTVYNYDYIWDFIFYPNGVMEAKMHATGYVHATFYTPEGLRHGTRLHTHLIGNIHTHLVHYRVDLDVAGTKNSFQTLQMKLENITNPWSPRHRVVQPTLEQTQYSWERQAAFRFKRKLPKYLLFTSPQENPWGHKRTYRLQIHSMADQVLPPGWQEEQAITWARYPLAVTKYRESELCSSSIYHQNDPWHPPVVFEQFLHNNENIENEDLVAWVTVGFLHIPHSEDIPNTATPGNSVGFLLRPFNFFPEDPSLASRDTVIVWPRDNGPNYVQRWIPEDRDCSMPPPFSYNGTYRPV
The assay can be described thus: DAO inhibition (Amplex Red continuous fluorescence assay). The assay is classed as biochemical. Particulars: 30 min pre-incubation at room temp; substrate histamine; read-out: Human DAO IC50. A digest of the protocol: as §1
For the compound `NC/C(=C/F)COc1cccc2scnc12` [Compound 9, (Z)-2-((benzo[d]thiazol-4-yloxy)methyl)-3-fluoroprop-2-en-1-amine hydrochloride], the IC50 is greater than 10 µM.

On to `NC/C(=C\F)COc1ccc(-c2ccn[nH]2)cc1` [Compound 42, (E)-2-((4-(1H-pyrazol-5-yl)phenoxy)methyl)-3-fluoroprop-2-en-1-amine hydrochloride], for which the IC50 is less than 3 µM.

On to `NC/C(=C\F)COc1ccc(-c2cnc[nH]2)cc1` [Compound 40, (E)-2-((4-(1H-imidazol-5-yl)phenoxy)methyl)-3-fluoroprop-2-en-1-amine], for which the IC50 is less than 3 µM.

Take `CCOC(=O)Nc1ccc(OC/C(=C/F)CN)cc1` [Compound 13]: the IC50 was 3 to 10 µM.

As for `NC/C(=C/F)COc1ccc(-c2nccs2)cc1` [Compound 20, (Z)-3-Fluoro-2-((4-(Thiazol-2-Yl)Phenoxy)Methyl)Prop-2-En-1-Amine Hydrochloride], the IC50 was less than 3 µM.

For `NC/C(=C/F)COc1ccc(-c2ncccn2)cc1` [Compound 38, (Z)-3-fluoro-2-((4-(pyrimidin-2-yl)phenoxy)methyl)prop-2-en-1-amine hydrochloride], the IC50 was less than 3 µM.

In the case of `Cn1cnc(-c2ccc(OC/C(=C/F)CN)cc2)c1` [Compound 39, (E)-3-fluoro-2-((4-(1-methyl-1H-imidazol-4-yl)phenoxy)methyl)prop-2-en-1-amine], the IC50 was less than 3 µM.

In the case of `NC/C(=C/F)COC(=O)Nc1ccccc1` [Compound 68, (Z)-2-(aminomethyl)-3-fluoroalkyl phenylcarbamate], the IC50 is less than 3 µM.

Turning to `NC/C(=C\F)Cn1ccc2ccccc21` [Compound 15, (E)-2-((1H-indol-1-yl)methyl)-3-fluoroprop-2-en-1-amine hydrochloride], the IC50 was greater than 10 µM.

Another assay concerns the target T4, Human MAO-B (Homo sapiens, UniProt P27338).
T4 sequence (P27338 1-520): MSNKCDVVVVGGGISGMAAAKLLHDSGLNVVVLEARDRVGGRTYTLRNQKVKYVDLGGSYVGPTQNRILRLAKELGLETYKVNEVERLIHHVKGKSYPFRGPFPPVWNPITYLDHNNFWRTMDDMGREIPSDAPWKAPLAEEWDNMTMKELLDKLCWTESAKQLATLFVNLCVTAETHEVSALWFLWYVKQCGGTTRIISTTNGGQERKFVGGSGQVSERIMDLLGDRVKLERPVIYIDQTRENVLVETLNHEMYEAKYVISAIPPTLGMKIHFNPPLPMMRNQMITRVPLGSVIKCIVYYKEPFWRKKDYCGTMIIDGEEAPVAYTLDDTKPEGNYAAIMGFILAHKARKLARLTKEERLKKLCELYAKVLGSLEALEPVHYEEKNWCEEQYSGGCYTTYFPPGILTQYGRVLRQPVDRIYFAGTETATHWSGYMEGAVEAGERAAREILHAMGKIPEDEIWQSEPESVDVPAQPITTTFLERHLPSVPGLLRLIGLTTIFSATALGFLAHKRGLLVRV
The experiment in a line: MAO-B inhibition (Amplex Red continuous fluorescence assay). The assay is classed as biochemical. Particulars: 30 min pre-incubation at room temp; substrate benzylamine; read-out: Human MAO-B IC50. A digest of the protocol: as §1
As to `NC/C(=C/F)COc1cccc2scnc12` [Compound 9, (Z)-2-((benzo[d]thiazol-4-yloxy)methyl)-3-fluoroprop-2-en-1-amine hydrochloride], the IC50 was less than 3 µM.

In the case of `NC/C(=C\F)COc1ccc(-c2ccn[nH]2)cc1` [Compound 42, (E)-2-((4-(1H-pyrazol-5-yl)phenoxy)methyl)-3-fluoroprop-2-en-1-amine hydrochloride], the concentration for half-maximal inhibition (IC50) is less than 3 µM.

For `NC/C(=C\F)COc1ccc(-c2cnc[nH]2)cc1` [Compound 40, (E)-2-((4-(1H-imidazol-5-yl)phenoxy)methyl)-3-fluoroprop-2-en-1-amine], the IC50 was less than 3 µM.

Consider `CCOC(=O)Nc1ccc(OC/C(=C/F)CN)cc1` [Compound 13], for which the IC50 was less than 3 µM.

`NC/C(=C/F)COc1ccc(-c2nccs2)cc1` [Compound 20, (Z)-3-Fluoro-2-((4-(Thiazol-2-Yl)Phenoxy)Methyl)Prop-2-En-1-Amine Hydrochloride]: the IC50 is less than 3 µM.

Regarding `NC/C(=C/F)COc1ccc(-c2ncccn2)cc1` [Compound 38, (Z)-3-fluoro-2-((4-(pyrimidin-2-yl)phenoxy)methyl)prop-2-en-1-amine hydrochloride], the IC50 is less than 3 µM.

`Cn1cnc(-c2ccc(OC/C(=C/F)CN)cc2)c1` [Compound 39, (E)-3-fluoro-2-((4-(1-methyl-1H-imidazol-4-yl)phenoxy)methyl)prop-2-en-1-amine]: the IC50 is less than 3 µM.

In the case of `NC/C(=C/F)COC(=O)Nc1ccccc1` [Compound 68, (Z)-2-(aminomethyl)-3-fluoroalkyl phenylcarbamate], the IC50 was less than 3 µM.

On to `NC/C(=C\F)Cn1ccc2ccccc21` [Compound 15, (E)-2-((1H-indol-1-yl)methyl)-3-fluoroprop-2-en-1-amine hydrochloride], for which the IC50 was less than 3 µM.
